Data reported in patent publication US6737383B1, “Herbicidal oxadiazolidines” (priority 1999, dated 2004).

What was measured:
morningglory = assay: Test B pre/postemergence morningglory; format: in vivo, Ipomoea hederacea
How it was run: (§1)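 Response is a visual 0-to-10 score relative to untreated plants, where 0 means no effect and 10 means complete control, taken twelve to sixteen days after application. Treatments went onto soil at planting and onto foliage of 1- to 4-leaf plants, using a surfactant-containing non-phytotoxic solvent.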

cocklebur = assay: Test B pre/postemergence cocklebur; format: in vivo, Xanthium strumarium
How it was run: as §1

smallflower flatsedge = assay: Test B flood test smallflower flatsedge; format: in vivo, Cyperus difformis
How it was run: (§2)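 Plants were grown to the 2-leaf stage before treatment with test chemical, then held in a greenhouse for twelve to sixteen days. Injury was visually rated against untreated controls on a 0–10 scale, where 0 is no effect and 10 is complete control.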

rice = assay: Test B flood test rice; format: in vivo, Oryza sativa
How it was run: as §2

rape = assay: Test B pre/postemergence rape; format: in vivo, Brassica napus
How it was run: as §1

velvetleaf = assay: Test B pre/postemergence velvetleaf; format: in vivo, Abutilon theophrasti; conditions: for Plant response rating, Velvetleaf: Rate 250 g/ha
How it was run: as §1

soybean = assay: Test B pre/postemergence soybean; format: in vivo, Glycine max
How it was run: as §1

purple nutsedge = assay: Test B pre/postemergence purple nutsedge; format: in vivo, Cyperus rotundus
How it was run: as §1

bamyardgrass = assay: Test B flood test barnyardgrass; format: in vivo, Echinochloa crus-galli
How it was run: as §2

corn = assay: Test B pre/postemergence corn; format: in vivo, Zea mays
How it was run: as §1

surinam grass = assay: Test B pre/postemergence surinam grass; format: in vivo, Brachiaria decumbens
How it was run: as §1

blackgrass = assay: Test B pre/postemergence blackgrass; format: in vivo, Alopecurus myosuroides
How it was run: as §1

bedstraw = assay: Test B pre/postemergence bedstraw; format: in vivo, Galium aparine
How it was run: as §1

sugar beet = assay: Test B pre/postemergence sugar beet; format: in vivo, Beta vulgaris; conditions: for Plant response rating, Sugarbeets: Rate 250 g/ha
How it was run: as §1

pigweed = assay: Test B pre/postemergence pigweed; format: in vivo, Amaranthus retroflexus
How it was run: as §1

wild oat = assay: Test B pre/postemergence wild oat; format: in vivo, Avena fatua; conditions: for Plant response rating, Wild oats: Rate 250 g/ha
How it was run: as §1

[1] = Postemergence, Rate 125 g/ha, scale of 0 to 10 where 0 is no effect and 10 is complete control
[2] = Postemergence, Rate 250 g/ha, scale 0 to 10, 0 no effect, 10 complete control
[3] = Preemergence, Rate 62 g/ha, scale 0 to 10 (0 no effect, 10 complete control)
[4] = Preemergence, Rate 125 g/ha, scale 0 to 10 (0 no effect, 10 complete control)
[5] = Preemergence, Rate 250 g/ha, scale of 0 to 10 where 0 is no effect and 10 is complete control
[6] = Preemergence, Rate 500 g/ha, scale 0 to 10 (0 no effect, 10 complete control)
[7] = Rate 62 g/ha, Postemergence, scale of 0 to 10 where 0 is no effect and 10 is complete control
[8] = Rate 500 g/ha, Postemergence, scale 0 to 10, 0 no effect, 10 complete control
[9] = Rate 250 g/ha, headed Pre-emergence (flood test species), scale 0 to 10 (0 no effect, 10 complete control)
[10] = Rate 500 g/ha, headed Pre-emergence (flood test species), scale 0 to 10 (0 no effect, 10 complete control)
[11] = Rate 2000 g/ha, Pre-emergence (as headed), scale 0 to 10
[12] = Rate 1000 g/ha, Pre-emergence (as headed), scale 0 to 10
[13] = Preemergence, Rate 125 g/ha, 0 is no effect, 10 is complete control
[14] = Preemergence, scale of 0 to 10 where 0 is no effect and 10 is complete control
[15] = Postemergence, scale 0 to 10, 0 is no effect, 10 is complete control
[16] = Rate 250 g/ha, Postemergence, scale 0 to 10, 0 is no effect, 10 is complete control
[17] = Postemergence, Rate 62 g/ha, scale 0 to 10, 0 is no effect, 10 is complete control
[18] = Rate 125 g/ha, Postemergence, scale 0 to 10, 0 no effect, 10 complete control

CCCn1c(=O)on(C(=O)N(c2ccc(Cl)cc2)C(C)C)c1=O [Compound 119]
Morningglory plant response rating (morningglory; [1]): 7 | Morningglory plant response rating (morningglory; [2]): 7 | Morningglory plant response rating (morningglory; [3]): 0 | Plant response rating, Morningglory (morningglory; [4]): 2 | Plant response rating, Morningglory (morningglory; [5]): 2 | Morningglory plant response rating (morningglory; [6]): 5 | Morningglory plant response rating (morningglory; [7]): 3 | Morningglory plant response rating (morningglory; [8]): 8 | Cocklebur plant response rating (cocklebur; [1]): 0 | Cocklebur plant response rating (cocklebur; [2]): 0 | Cocklebur plant response rating (cocklebur; [3]): 0 | Plant response rating, Cocklebur (cocklebur; [4]): 0 | Plant response rating, Cocklebur (cocklebur; [5]): 0 | Cocklebur plant response rating (cocklebur; [7]): 0 | Cocklebur plant response rating (cocklebur; [8]): 0 | S. Flatsedge plant response rating (smallflower flatsedge; Pre-emergence, Rate 1000 g/ha, scale 0 to 10 (0 no effect, 10 complete control)): 0 | S. Flatsedge plant response rating (smallflower flatsedge; [9]): 0 | Plant response rating, S. Flatsedge (smallflower flatsedge; [10]): 0 | S. Flatsedge plant response rating (smallflower flatsedge; [11]): 0 | Plant response rating, Rice (rice; Rate 250 g/ha, Postemergence (flood test), scale 0 to 10, 0 is no effect, 10 is complete control): 0 | Rice plant response rating (rice; [9]): 0 | Plant response rating, Rice (rice; [10]): 0 | Rice plant response rating (rice; Rate 500 g/ha, listed under Postemergence (flood test species), scale 0 to 10, 0 no effect, 10 complete control): 0 | Rice plant response rating (rice; [12]): 0 | Rice plant response rating (rice; [11]): 0 | Rape plant response rating (rape; [1]): 0 | Rape plant response rating (rape; [2]): 2 | Rape plant response rating (rape; [3]): 4 | Plant response rating, Rape (rape; [4]): 6 | Plant response rating, Rape (rape; [5]): 7 | Rape plant response rating (rape; [6]): 9 | Rape plant response rating (rape; [7]): 0 | Rape plant response rating (rape; [8]): 4 | Velvetleaf plant response rating (velvetleaf; [1]): 2 | Velvetleaf plant response rating (velvetleaf; [3]): 0 | Velvetleaf plant response rating (0 to 10 scale) (velvetleaf; [13]): 4 | Plant response rating, Velvetleaf (velvetleaf; [14]): 5 | Velvetleaf plant response rating (velvetleaf; [6]): 6 | Velvetleaf plant response rating (velvetleaf; [7]): 0 | Plant response rating, Velvetleaf (velvetleaf; [15]): 3 | Velvetleaf plant response rating (velvetleaf; [8]): 3 | Soybean plant response rating (soybean; [1]): 2 | Soybean plant response rating (soybean; [3]): 0 | Plant response rating, Soybean (soybean; [4]): 0 | Plant response rating, Soybean (soybean; [5]): 0 | Soybean plant response rating (soybean; [6]): 0 | Soybean plant response rating (soybean; [7]): 1 | Plant response rating, Soybean (soybean; [16]): 4 | Soybean plant response rating (soybean; [8]): 6 | Nutsedge plant response rating (purple nutsedge; [1]): 0 | Nutsedge plant response rating (purple nutsedge; [2]): 0 | Nutsedge plant response rating (purple nutsedge; [3]): 0 | Plant response rating, Nutsedge (purple nutsedge; [4]): 0 | Plant response rating, Nutsedge (purple nutsedge; [5]): 0 | Nutsedge plant response rating (purple nutsedge; [6]): 6 | Nutsedge plant response rating (purple nutsedge; [7]): 0 | Nutsedge plant response rating (purple nutsedge; [8]): 0 | Barnyardgrass plant response rating (bamyardgrass; [9]): 0 | Plant response rating, Barnyardgrass (bamyardgrass; [10]): 0 | Barnyardgrass plant response rating (bamyardgrass; [12]): 0 | Barnyardgrass plant response rating (bamyardgrass; Rate 2000 g/ha, Pre-emergence (as headed), scale 0 to 10, 0 no effect, 10 complete control): 0 | Corn plant response rating (corn; [1]): 0 | Corn plant response rating (corn; [2]): 0 | Corn plant response rating (corn; [3]): 0 | Plant response rating, Corn (corn; [4]): 0 | Plant response rating, Corn (corn; [5]): 0 | Corn plant response rating (corn; [6]): 2 | Corn plant response rating (corn; [7]): 0 | Corn plant response rating (corn; [8]): 0 | B. signalgrass plant response rating (surinam grass; [17]): 0 | B. signalgrass plant response rating (surinam grass; [2]): 3 | B. signalgrass plant response rating (surinam grass; [3]): 5 | Plant response rating, B. signalgrass (surinam grass; [4]): 7 | Plant response rating, B. signalgrass (surinam grass; [5]): 7 | B. signalgrass plant response rating (surinam grass; [6]): 9 | B. signalgrass plant response rating (surinam grass; [18]): 0 | B. signalgrass plant response rating (surinam grass; Rate 500 g/ha, Postemergence, scale of 0 to 10 where 0 is no effect and 10 is complete control): 5 | Blackgrass plant response rating (blackgrass; [1]): 3 | Blackgrass plant response rating (blackgrass; [2]): 7 | Blackgrass plant response rating (blackgrass; [3]): 5 | Plant response rating, Blackgrass (blackgrass; [4]): 8 | Plant response rating, Blackgrass (blackgrass; [5]): 9 | Blackgrass plant response rating (blackgrass; [6]): 9 | Blackgrass plant response rating (blackgrass; [7]): 2 | Blackgrass plant response rating (blackgrass; [8]): 8 | Bedstraw plant response rating (bedstraw; [17]): 0 | Bedstraw plant response rating (bedstraw; [2]): 4 | Plant response rating, Bedstraw (bedstraw; [4]): 0 | Plant response rating, Bedstraw (bedstraw; [5]): 2 | Bedstraw plant response rating (bedstraw; [6]): 8 | Bedstraw plant response rating (bedstraw; [18]): 2 | Bedstraw plant response rating (bedstraw; [8]): 8 | Sugarbeets plant response rating (sugar beet; [1]): 0 | Sugarbeets plant response rating (sugar beet; [3]): 3 | Sugarbeets plant response rating (0 to 10 scale) (sugar beet; [13]): 4 | Plant response rating, Sugarbeets (sugar beet; [14]): 8 | Sugarbeets plant response rating (sugar beet; [6]): 8 | Sugarbeets plant response rating (sugar beet; [7]): 0 | Plant response rating, Sugarbeets (sugar beet; [15]): 0 | Sugarbeets plant response rating (sugar beet; [8]): 4 | Redroot pigweed plant response rating (pigweed; [1]): 0 | Redroot pigweed plant response rating (pigweed; [3]): 10 | Plant response rating, Redroot pigweed (pigweed; [4]): 10 | Plant response rating, Redroot pigweed (pigweed; [5]): 10 | Redroot pigweed plant response rating (pigweed; [6]): 10 | Redroot pigweed plant response rating (pigweed; [7]): 0 | Plant response rating, Redroot pigweed (pigweed; [16]): 2 | Redroot pigweed plant response rating (pigweed; [8]): 6 | Wild oats plant response rating (wild oat; [1]): 0 | Wild oats plant response rating (wild oat; [3]): 5 | Wild oats plant response rating (0 to 10 scale) (wild oat; [13]): 6 | Plant response rating, Wild oats (wild oat; [14]): 6 | Wild oats plant response rating (wild oat; [6]): 9 | Wild oats plant response rating (wild oat; [7]): 0 | Plant response rating, Wild oats (wild oat; [15]): 3 | Wild oats plant response rating (wild oat; [8]): 6
